For one molecule, IC50 results are on record in publication PMC10776880 (EXCLI Journal, 2023).

The target in the test is T1, ABCG2 (breast cancer resistance protein, BCRP) (Homo sapiens, UniProt Q9UNQ0).
T1 sequence (Q9UNQ0 1-655): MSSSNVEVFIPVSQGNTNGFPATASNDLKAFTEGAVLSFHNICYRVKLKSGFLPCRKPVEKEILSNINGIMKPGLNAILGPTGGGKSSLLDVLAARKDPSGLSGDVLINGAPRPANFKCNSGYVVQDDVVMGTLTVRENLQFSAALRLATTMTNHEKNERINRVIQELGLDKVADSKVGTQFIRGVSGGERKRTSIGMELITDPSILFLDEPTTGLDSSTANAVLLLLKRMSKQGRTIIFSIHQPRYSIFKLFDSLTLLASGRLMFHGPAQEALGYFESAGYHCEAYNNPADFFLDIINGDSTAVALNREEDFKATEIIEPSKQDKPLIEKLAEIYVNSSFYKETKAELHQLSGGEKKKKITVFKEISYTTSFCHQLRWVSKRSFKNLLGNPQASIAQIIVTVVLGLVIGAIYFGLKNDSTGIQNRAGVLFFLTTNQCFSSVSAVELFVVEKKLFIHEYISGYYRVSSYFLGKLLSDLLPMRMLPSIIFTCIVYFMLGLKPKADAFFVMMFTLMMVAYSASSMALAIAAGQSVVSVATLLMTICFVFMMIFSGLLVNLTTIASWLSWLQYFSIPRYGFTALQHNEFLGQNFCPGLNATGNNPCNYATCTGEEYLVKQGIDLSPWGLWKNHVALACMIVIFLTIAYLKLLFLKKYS
Put plainly: Hoechst […] efflux inhibition by flow cytometry in HEK293-ABCG2 cells; 5D3 conformational antibody shift; kinetics with mitoxantrone. In kind it is cell-based. In general terms: In flow cytometry, cells or beads pass a laser one at a time.

Consider `Cc1cccc(C)c1OCC(=O)N[C@@H](Cc1ccccc1)[C@@H](O)C[C@H](Cc1ccccc1)NC(=O)[C@H](C(C)C)N1CCCNC1=O` [LPV, lopinavir], for which the concentration for half-maximal inhibition (IC50) – broadly, the midpoint of a concentration-inhibition curve – turned out to be 23.4 µM.
